Data on 23 compounds can be found in patent publication US20200031785A1, “METHODS FOR TREATING CHRONIC PAIN AND OPIOID DEPENDENCE USING ADENYLYL CYCLASE INHIBITORS” (Purdue Research Foundation, priority 2017, published 2020).

Experiment [1] concerns the target T1, hAC1 (Homo sapiens, UniProt Q08828).
T1 construct: expressed in transfected cells
The experiment is described as follows: Cyclic AMP accumulation in HEK cells stably expressing AC1, stimulated with A23187 (HTRF). The experiment is classed as cell-based. Particulars: HEK-AC1 cells; for inhibition at 30 µM: HEK293; for IC50: read-out: HEK-AC1 IC50. How it is done:
The development and mechanistic characterization of AC1-selective small molecule inhibitors is believed to provide novel non-opioid weapons in the war on chronic pain. We identified our initial hits via screening 10,000 selected compounds from the Life Chemicals collection. The screen was carried out using HEK cells stably expressing AC1 (HEK-AC1) and cyclic AMP accumulation was stimulated using the Ca^2+ ionophore, A23187 to selectively activate AC1. Compounds with potential chemical liabilities and PAINs were removed from further evaluation (Baell and Holloway, J. Med. Chem. 2010, 53, 2719-2740).
(§1) Fresh powders of several robust inhibitors (>90% inhibition) were evaluated in multiple confirmation assays assessing the dose response relationship for inhibiting AC1 and AC8 activity. Confirmation assays used A23817 to selectively stimulate recombinant AC1 or AC8 in the HEK cell background (Cumbay and Watts (2001), J. Pharmacol Exp Ther 297:1201-1399). This approach takes advantage of one unique regulatory property of AC1 for the development of selective inhibitors. Both AC1 and AC8 are robustly activated by Ca^2+/CaM under a variety of conditions, whereas the effects of Ca^2+/CaM on AC3 are modest and conditional requiring activation by G proteins. Previous studies have identified unique Ca^2+/CaM binding domains as one possible site of interaction to achieve AC1 (vs. AC8) selectivity (Masada et al., 2012, Biochemistry 51:7917-7929).
(§2) The primary technology we employed to measure cAMP accumulation was a homogenous time-resolved fluorescence (HTRF) assay, the same technology utilized in the primary screen. […] This could be due to either 1) the chemical scaffolds are exquisitely selective toward the AC family of enzymes or 2) the library has not been screened against a sufficient number of targets. The answer is likely a combination of the two; nonetheless, the lack of biological data to date bodes well for these series and any potential off-target promiscuity.
(§3) Human embryonic kidney (HEK) cells stably expressing AC1, AC8, or AC1 with the MOR were cultured in Dulbecco's Modified Eagle Medium (Life Technologies, Grand Island, N.Y.) supplemented with 5% bovine calf serum (Hyclone, Logan, Utah), 5% fetal clone I (Hyclone), Antibiotic-Antimycotic (Life Technologies), and G418 (Invivogen, San Diego, Calif.) (HEK-AC1), or hygromycin B (Fisher Scientific, Pittsburgh, Pa.) (HEK-AC8), or G418 and puromycin (Sigma-Aldrich) (HEK-AC1/MOR). Chinese hamster ovary (CHO) cells expressing the MOR (CHO-MOR) in the PathHunter® β-Arrestin GPCR assay platform were purchased from DiscoveRx (Freemont, Calif.). Cells were grown in Ham's F12 media supplemented with 1 mM L-glutamine (Thermo Scientific, West Palm Beach, Fla.), 10% fetal bovine serum (Hyclone), 50 U/ml penicillin, 50 μg/ml streptomycin (Life Technologies), G418 and hygromycin B. Cells were grown and frozen as previously described (J. M. Conley, et al., J Vis Exp, e51218 (2014)).
(§4) Cyclic AMP accumulation was measured as previously described (Brust, et al., J. Pharmacol. Exp. Ther. 352, 480-493(2015)). Briefly, cryopreserved cells were thawed, resuspended in optiMEM (Life Technologies), and plated in white, flat bottom, low-volume, tissue culture-treated 384 well plates (PerkinElmer, Shelton, Conn.). Plates with cells were incubated in a 37° C. humidified incubator for 1 h. Inhibitors were added and plates were incubated at room temperature for 30 min followed by the addition of AC stimulants in the presence of 500 μM IBMX. Cells were incubated at room temperature for 1 h and cAMP accumulation was measured using Cisbio's cAMP kit (Cisbio Bioassays, Bedford, Mass.) according to the manufacturer's instructions.

The target in experiment [2] is T2, hAC8 (Homo sapiens, UniProt P40145).
T2 construct: expressed in transfected cells
The experiment in a line: Cyclic AMP accumulation in HEK cells stably expressing AC8, stimulated with A23187 (HTRF). It is filed as cell-based. Particulars: HEK-AC8 cells; for inhibition at 30 µM: HEK293; for IC50: read-out: HEK-AC8 IC50. How it is done: as §1, §2, §3, §4
For orientation: In TR-FRET formats the signal depends on donor and acceptor labels being close together.

Molecules are shown by their SMILES.

T2 sequence (P40145 whole entry): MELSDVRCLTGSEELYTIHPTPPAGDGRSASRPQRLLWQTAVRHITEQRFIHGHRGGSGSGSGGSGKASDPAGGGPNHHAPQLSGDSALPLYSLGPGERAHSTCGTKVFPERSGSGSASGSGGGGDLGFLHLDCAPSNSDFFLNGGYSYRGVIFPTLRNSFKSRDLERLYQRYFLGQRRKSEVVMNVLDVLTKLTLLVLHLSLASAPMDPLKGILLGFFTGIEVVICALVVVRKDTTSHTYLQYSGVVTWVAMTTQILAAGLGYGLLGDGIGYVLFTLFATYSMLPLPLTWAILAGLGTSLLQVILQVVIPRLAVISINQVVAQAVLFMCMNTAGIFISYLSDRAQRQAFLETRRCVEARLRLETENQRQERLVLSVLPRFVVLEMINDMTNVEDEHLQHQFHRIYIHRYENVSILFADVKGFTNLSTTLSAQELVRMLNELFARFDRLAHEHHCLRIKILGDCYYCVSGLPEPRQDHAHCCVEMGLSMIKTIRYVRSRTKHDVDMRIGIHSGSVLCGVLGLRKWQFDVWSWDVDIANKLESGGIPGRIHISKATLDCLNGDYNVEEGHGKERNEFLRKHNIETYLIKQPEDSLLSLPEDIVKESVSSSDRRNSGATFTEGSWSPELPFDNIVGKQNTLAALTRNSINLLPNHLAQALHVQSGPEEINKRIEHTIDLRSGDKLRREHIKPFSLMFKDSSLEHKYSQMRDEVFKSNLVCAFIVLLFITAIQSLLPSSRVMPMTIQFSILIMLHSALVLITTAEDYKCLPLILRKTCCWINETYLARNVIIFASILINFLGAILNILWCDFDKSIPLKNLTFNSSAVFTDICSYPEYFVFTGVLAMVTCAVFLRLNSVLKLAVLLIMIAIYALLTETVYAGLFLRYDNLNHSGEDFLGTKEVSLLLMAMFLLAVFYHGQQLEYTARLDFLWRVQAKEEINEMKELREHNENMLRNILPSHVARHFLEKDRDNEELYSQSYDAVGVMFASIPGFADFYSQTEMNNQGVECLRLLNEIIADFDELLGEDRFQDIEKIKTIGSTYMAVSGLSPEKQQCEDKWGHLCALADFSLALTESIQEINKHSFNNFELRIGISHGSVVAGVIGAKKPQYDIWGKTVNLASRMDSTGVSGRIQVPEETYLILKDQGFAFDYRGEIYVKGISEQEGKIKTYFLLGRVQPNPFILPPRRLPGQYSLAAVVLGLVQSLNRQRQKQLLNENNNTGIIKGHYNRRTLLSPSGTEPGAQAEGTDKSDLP
T1 sequence (Q08828 whole entry): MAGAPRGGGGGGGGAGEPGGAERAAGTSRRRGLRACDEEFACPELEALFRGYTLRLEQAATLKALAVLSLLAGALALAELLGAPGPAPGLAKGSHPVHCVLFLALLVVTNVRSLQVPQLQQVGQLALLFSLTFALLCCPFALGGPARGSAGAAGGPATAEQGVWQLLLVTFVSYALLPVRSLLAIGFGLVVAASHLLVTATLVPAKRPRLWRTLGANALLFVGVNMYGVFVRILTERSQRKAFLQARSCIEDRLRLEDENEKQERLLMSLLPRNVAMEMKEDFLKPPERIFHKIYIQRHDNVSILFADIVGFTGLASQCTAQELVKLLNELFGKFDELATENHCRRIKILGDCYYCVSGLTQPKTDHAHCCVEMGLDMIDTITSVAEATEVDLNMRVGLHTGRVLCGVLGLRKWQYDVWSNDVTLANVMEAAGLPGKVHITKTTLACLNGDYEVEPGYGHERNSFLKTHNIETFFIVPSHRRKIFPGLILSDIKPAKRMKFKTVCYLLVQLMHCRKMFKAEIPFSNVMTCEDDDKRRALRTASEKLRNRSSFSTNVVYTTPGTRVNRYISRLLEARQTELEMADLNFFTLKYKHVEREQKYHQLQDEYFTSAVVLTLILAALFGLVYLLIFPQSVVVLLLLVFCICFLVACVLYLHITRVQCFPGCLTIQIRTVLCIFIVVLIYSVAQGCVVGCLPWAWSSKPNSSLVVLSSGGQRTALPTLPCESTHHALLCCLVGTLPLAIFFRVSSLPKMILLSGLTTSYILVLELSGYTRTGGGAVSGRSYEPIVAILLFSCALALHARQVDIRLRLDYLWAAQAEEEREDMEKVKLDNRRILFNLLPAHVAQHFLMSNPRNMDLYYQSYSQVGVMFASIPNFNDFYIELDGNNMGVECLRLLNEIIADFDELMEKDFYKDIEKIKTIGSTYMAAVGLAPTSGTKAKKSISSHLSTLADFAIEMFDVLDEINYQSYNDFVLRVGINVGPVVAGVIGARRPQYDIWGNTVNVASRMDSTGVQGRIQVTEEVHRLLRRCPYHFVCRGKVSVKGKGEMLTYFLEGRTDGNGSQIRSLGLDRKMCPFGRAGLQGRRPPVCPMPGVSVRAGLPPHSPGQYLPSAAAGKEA

Consider `O=C(Nc1nnc(-c2ccc3c(c2)CCCC3)o1)c1cccc(C(F)(F)F)c1` [AC10026, N-(5-(5,6,7,8-tetrahydronaphthalen-2-yl)-1,3,4-oxadiazol-2-yl)-3-(trifluoromethyl)benzamide], for which the inhibition – broadly, the change of the read-out against control, counted positive when it falls – at 30 µM is 100 ± 1% in experiment [1] and 82 ± 7% in experiment [2]. For the same compound, the IC50 (in general, the concentration that inhibits the measured activity by half) in experiment [1] amounted to 1.6 ± 0.2 µM; in experiment [2], 7.9 ± 3 µM.

Regarding `O=C(Nc1nnc(-c2ccc(F)cc2)o1)c1cccc(C(F)(F)F)c1` [AC10028, N-(5-(4-fluorophenyl)-1,3,4-oxadiazol-2-yl)-3-(trifluoromethyl)benzamide], in experiment [1], the inhibition at 30 µM amounted to 99 ± 2% and the IC50 is 5 ± 1 µM. Further, in experiment [2], the inhibition at 30 µM stood at 58 ± 1% and the IC50 came to 29 ± 1 µM.

As to `Cc1ccc(C(=O)Nc2nnc(-c3ccc4c(c3)OCCO4)o2)cc1` [AC10029, N-(5-(2,3-dihydrobenzo[b][1,4]dioxin-6-yl)-1,3,4-oxadiazol-2-yl)-4-methylbenzamide], in experiment [1], the inhibition at 30 µM is 86 ± 11% and the IC50 was determined as 11.5 ± 4 µM. Also, in experiment [2], the inhibition at 30 µM came out at 25 ± 6% and the IC50 came out at 83 ± 47 µM.

`Cc1ccc(C(=O)Nc2nnc(-c3ccc(F)cc3)o2)cc1C` [AC10030, N-(5-(4-fluorophenyl)-1,3,4-oxadiazol-2-yl)-3,4-dimethylbenzamide]: the inhibition at 30 µM is 93 ± 4% in experiment [1] and 42 ± 4% in experiment [2]. The values for the IC50 in experiment [1] and in experiment [2] were 6.5 ± 1 µM and 46 ± 7 µM, respectively.

Take `Cc1ccc(C(=O)Nc2nnc(-c3ccc(F)cc3)o2)cc1` [AC10031, N-(5-(4-fluorophenyl)-1,3,4-oxadiazol-2-yl)-4-methylbenzamide]: in experiment [1], the inhibition at 30 µM came out at 80 ± 10% and the IC50 was 7.3 ± 2 µM. Besides, in experiment [2], the inhibition at 30 µM is 31 ± 6% and the IC50 turned out to be 61 ± 33 µM.

For `Cc1ccc(C(=O)Nc2nnc(C3CCCCC3)o2)cc1` [AC10032, N-(5-cyclohexyl-1,3,4-oxadiazol-2-yl)-4-methylbenzamide], the inhibition at 30 µM in experiment [1] is 78 ± 4%; in experiment [2], 1 ± 12%. The IC50 in experiment [1] is 15.8 ± 2 µM.

With `Cc1ccc(C(=O)Nc2nnc(-c3ccc4c(c3)CCCC4)o2)cc1` [AC10033, 4-methyl-N-(5-(5,6,7,8-tetrahydronaphthalen-2-yl)-1,3,4-oxadiazol-2-yl)benzamide], in experiment [1], the inhibition at 30 µM is 100 ± 1% and the IC50 was found to be 3.4 ± 1 µM. Also, in experiment [2], the inhibition at 30 µM turned out to be 60 ± 8% and the IC50 turned out to be 25 ± 6 µM.

For `COc1cccc(C(=O)Nc2nnc(-c3ccc(F)cc3)o2)c1` [AC10034, N-(5-(4-fluorophenyl)-1,3,4-oxadiazol-2-yl)-3-methoxybenzamide], in experiment [1], the inhibition at 30 µM stood at 79 ± 9% and the IC50 turned out to be 15 ± 4 µM. Besides, in experiment [2], the inhibition at 30 µM stood at 23 ± 5% and the IC50 is 101 ± 14 µM.

`Cc1ccc(C(=O)Nc2nnc(-c3ccc4c(c3)OCCO4)o2)cc1C` [AC10035, N-(5-(2,3-dihydrobenzo[b][1,4]dioxin-6-yl)-1,3,4-oxadiazol-2-yl)-3,4-dimethylbenzamide]: the results for the inhibition at 30 µM in experiment [1] and in experiment [2] were 100 ± 1% and 61 ± 1%, respectively. For the same compound, the half-inhibitory concentration (IC50) turned out to be 5.3 ± 0.4 µM in experiment [1] and 14 ± 3 µM in experiment [2].

For `O=C(Nc1nnc(-c2ccc(F)cc2)o1)c1ccc(S(=O)(=O)N2CCCCC2)cc1` [AC10036, N-(5-(4-fluorophenyl)-1,3,4-oxadiazol-2-yl)-4-(piperidin-1-ylsulfonyl)benzamide], the inhibition at 30 µM in experiment [1] is 83 ± 6%. For the same compound, in experiment [2], the inhibition at 30 µM was 38 ± 7% and the IC50 came to 39 ± 16 µM.

Consider `CC(C)Oc1ccc(C(=O)Nc2nnc(-c3ccc4c(c3)OCCO4)o2)cc1` [AC10037, N-(5-(2,3-dihydrobenzo[b][1,4]dioxin-6-yl)-1,3,4-oxadiazol-2-yl)-4-isopropoxybenzamide], for which, in experiment [1], the inhibition at 30 µM was 88 ± 3% and the half-inhibitory concentration (IC50) worked out at 7.5 ± 0.7 µM. Also, in experiment [2], the inhibition at 30 µM was found to be 39 ± 7% and the IC50 came out at 56 ± 23 µM.

With `COc1cccc(C(=O)Nc2nnc(-c3ccc4c(c3)OCCO4)o2)c1` [AC10038, N-(5-(2,3-dihydrobenzo[b][1,4]dioxin-6-yl)-1,3,4-oxadiazol-2-yl)-3-methoxybenzamide], in experiment [1], the inhibition at 30 µM came to 84 ± 5% and the IC50 is 9.6 ± 3 µM. Moreover, in experiment [2], the inhibition at 30 µM came to 18 ± 10% and the IC50 amounted to 115 ± 43 µM.

Regarding `COc1ccc(C(=O)Nc2nnc(-c3ccc(F)cc3)o2)cc1` [AC10039, N-(5-(4-fluorophenyl)-1,3,4-oxadiazol-2-yl)-4-methoxybenzamide], the results for the inhibition at 30 µM in experiment [1] and in experiment [2] were 73 ± 4% and 20 ± 6%, respectively.

With `COc1ccc(C(=O)Nc2nnc(C3CCCCC3)o2)cc1` [AC10040, N-(5-cyclohexyl-1,3,4-oxadiazol-2-yl)-4-methoxybenzamide], in experiment [1], the inhibition at 30 µM turned out to be 73 ± 1% and the IC50 was 22 ± 3 µM. In addition, the inhibition at 30 µM in experiment [2] is 6 ± 16%.

For the compound `COc1ccc(C(=O)Nc2nnc(-c3ccc4c(c3)CCCC4)o2)cc1` [AC10041, 4-methoxy-N-(5-(5,6,7,8-tetrahydronaphthalen-2-yl)-1,3,4-oxadiazol-2-yl)benzamide], in experiment [1], the inhibition at 30 µM is 94 ± 2% and the IC50 was determined as 6.4 ± 1 µM. Further, in experiment [2], the inhibition at 30 µM is 34 ± 11% and the 50% inhibitory concentration (IC50) amounted to 46 ± 13 µM.

`CCc1ccc(C(=O)Nc2nnc(-c3ccc(F)cc3)o2)cc1` [AC10044, 4-ethyl-N-(5-(4-fluorophenyl)-1,3,4-oxadiazol-2-yl)benzamide]: the values for the inhibition at 30 µM in experiment [1] and in experiment [2] were 88 ± 4% and 32 ± 12%, respectively. Besides, the figures for the IC50 in experiment [1] and in experiment [2] were 8.2 ± 2 µM and 51 ± 7 µM, respectively.

`CCc1ccc(C(=O)Nc2nnc(C3CCCCC3)o2)cc1` [AC10045, N-(5-cyclohexyl-1,3,4-oxadiazol-2-yl)-4-ethylbenzamide]: in experiment [1], the inhibition at 30 µM amounted to 91 ± 4% and the IC50 turned out to be 7.3 ± 3 µM. In experiment [2], the inhibition at 30 µM amounted to 44 ± 7% and the IC50 was determined as 71 ± 14 µM.

Take `O=C(Nc1nnc(-c2ccc(F)cc2)o1)c1cccc(F)c1` [AC10046, 3-fluoro-N-(5-(4-fluorophenyl)-1,3,4-oxadiazol-2-yl)benzamide]: the inhibition at 30 µM came to 81 ± 7% in experiment [1] and 35 ± 1% in experiment [2]. Also, the concentration for half-maximal inhibition (IC50) worked out at 10.6 ± 3 µM in experiment [1] and 69 ± 11 µM in experiment [2].

`O=C(Nc1nnc(C2CCCCC2)o1)c1cccc(F)c1` [AC10047, N-(5-cyclohexyl-1,3,4-oxadiazol-2-yl)-3-fluorobenzamide]: the results for the inhibition at 30 µM in experiment [1] and in experiment [2] were 79 ± 8% and 11 ± 3%, respectively. For the same compound, in experiment [1], the IC50 came out at 10.5 ± 2 µM.

Consider `O=C(Nc1nnc(-c2ccc(F)cc2)o1)c1ccc(F)cc1` [AC10052, 4-fluoro-N-(5-(4-fluorophenyl)-1,3,4-oxadiazol-2-yl)benzamide], for which, in experiment [1], the inhibition at 30 µM was found to be 64 ± 1% and the IC50 worked out at 17 ± 2 µM. Moreover, in experiment [2], the inhibition at 30 µM was determined as 14 ± 3%.

Turning to `O=C(Nc1nnc(C2CCCCC2)o1)c1ccc(F)cc1` [AC10053, N-(5-cyclohexyl-1,3,4-oxadiazol-2-yl)-4-fluorobenzamide], the figures for the inhibition at 30 µM in experiment [1] and in experiment [2] were 74 ± 3% and 7 ± 4%, respectively. In addition, the IC50 in experiment [1] was 12.8 ± 1 µM.

Take `O=C(Nc1nnc(-c2ccc(F)cc2)o1)c1ccc(Cl)cc1` [AC10054, 4-chloro-N-(5-(4-fluorophenyl)-1,3,4-oxadiazol-2-yl)benzamide]: in experiment [1], the inhibition at 30 µM worked out at 76 ± 1% and the IC50 was 8.9 ± 1 µM. Besides, the inhibition at 30 µM in experiment [2] was determined as 11 ± 9%.

Regarding `O=C(Nc1nnc(C2CCCCC2)o1)c1ccc(Cl)cc1` [AC10055, 4-chloro-N-(5-cyclohexyl-1,3,4-oxadiazol-2-yl)benzamide], in experiment [1], the inhibition at 30 µM was found to be 71 ± 5% and the IC50 was 13.5 ± 2 µM. Besides, the inhibition at 30 µM in experiment [2] is 10 ± 12%.
